# According to article PMC4887995, “Small molecule dual-inhibitors of TRPV4 and TRPA1 for attenuation of inflammation and pain” (Scientific Reports, 2016):
# Assays:
# [1] = Compound concentration in organs and plasma by LC-MS/MS; assay type: in vivo, mouse; settings: 10 mg/kg i.p.
# Procedure: Mice were treated with 10 mg/kg i.p. of the respective inhibitor. Post-euthanasia harvested tissue was frozen in liquid nitrogen and stored at −80 °C for further analysis.
# Frozen tissue samples were partially thawed and cut into 1 mm slices, 5–15 mg tissue, 2-fold excess water (mass/vol.), 6-fold excess acetonitrile (16-… compounds) or methanol (GSK205) containing appropriate amount of internal standard, and 2.5 mm zirconia/silica bead (Biospec Products Inc.) were added to 500- μL polypropylene (PP) conical tube, homogenized in a Fast-Prep apparatus (Thermo-Savant) at speed “4” for 20 sec at room temp, and centrifuged at 13,600 g for 5 min at room temp. Depending on the expected concentration range of the measured compound, the supernatant was diluted 1/4–1/20 (in Mobile phase A, see below) and placed in autosampler for LC-MS/MS analysis.
# The LC-MS/MS assay for 16-… compounds and GSK205 was developed on an Agilent 1200 series LC system interfaced with Applied Biosystems API 5500QTrap, a hybrid triple quadruple-linear trap MS/MS spectrometer. Analyst (version 1.6.1) software was used for mass parameters tuning, data acquisition, and quantification. LC column: 3 × 4 mm RP C18 (Phenomenex, AJ0-4287) was operated at 35 °C. Mobile phase A: 0.1% formic acid, 2% acetonitrile, in LC/MS-grade water; mobile phase B: acetonitrile; flow rate: 1 mL/min, 1:1 MS/MS:waste split. Run time was 4 min. Diverter valve was used to send flow to MS/MS only between 1.2 and 2.5 min. The elution gradient was: 0–0.5 min, 1%B; 0.5–1.2 min, 1–95%B; 1.2–1.5 min, 95%B; 1.5–1.6 min, 95–1%B. Autosampler was operated at 4 °C; injection volume was kept at 10–50 μL. Electrospray ionization (ESI) source parameters were: positive ionization mode, curtain gas flow = 30, ionization potential = 5500 V, temperature = 500 °C, nebulizing gas 1 flow = 30, nebulizing gas 2 = 30, declustering potential = 20 V. 16-… compounds and GSK205 were individually infused as 100 nM solutions in 50%A/50%B at 10 μL/min flow rate and parameters optimized to provide maximal ion count for “parent” and collision-produced (“daughter”) MS/MS ions. Parent/daughter quantifier [qualifier] ions utilized: GSK205 (401.1/280[370]), 16-8 (400.1/279.1[91.1], 16-16 (387.1/280[105]), 16-18 (415.2/280[370], 16-19 (414.1/279.2[91.1]. Standard (analyte of interest)/internal standard pairs utilized: GSK205/16-16, 16-8/16-16, 16-18/GSK205, 16-19/16-8.
# Calibration samples (n = 6) were prepared by adding pure standard of the measured compound to tissue homogenate (tissue + 2-fold excess water, mass/vol) in the appropriate range needed for the particular dosing regime. Organs studied were analyzed alongside the study samples. […] Peak integration, calibration, and quantification was performed within Analyst software. […]
# [2] = target: TRPV4 (Rattus norvegicus, UniProt Q9ERZ8); assay: Patch-clamp recording of TRPV4-mediated currents in TRPV4-GFP+ N2a cells; assay type: cell-based; design: expressed in transfected cells; host or cells: N2a (mouse neuroblastoma) cells; settings: 5 μM, 5 min pre-incubation, GSK101 5 nM, current densities at −100mV/+100 mV
# Sequence of TRPV4 (Q9ERZ8 whole entry): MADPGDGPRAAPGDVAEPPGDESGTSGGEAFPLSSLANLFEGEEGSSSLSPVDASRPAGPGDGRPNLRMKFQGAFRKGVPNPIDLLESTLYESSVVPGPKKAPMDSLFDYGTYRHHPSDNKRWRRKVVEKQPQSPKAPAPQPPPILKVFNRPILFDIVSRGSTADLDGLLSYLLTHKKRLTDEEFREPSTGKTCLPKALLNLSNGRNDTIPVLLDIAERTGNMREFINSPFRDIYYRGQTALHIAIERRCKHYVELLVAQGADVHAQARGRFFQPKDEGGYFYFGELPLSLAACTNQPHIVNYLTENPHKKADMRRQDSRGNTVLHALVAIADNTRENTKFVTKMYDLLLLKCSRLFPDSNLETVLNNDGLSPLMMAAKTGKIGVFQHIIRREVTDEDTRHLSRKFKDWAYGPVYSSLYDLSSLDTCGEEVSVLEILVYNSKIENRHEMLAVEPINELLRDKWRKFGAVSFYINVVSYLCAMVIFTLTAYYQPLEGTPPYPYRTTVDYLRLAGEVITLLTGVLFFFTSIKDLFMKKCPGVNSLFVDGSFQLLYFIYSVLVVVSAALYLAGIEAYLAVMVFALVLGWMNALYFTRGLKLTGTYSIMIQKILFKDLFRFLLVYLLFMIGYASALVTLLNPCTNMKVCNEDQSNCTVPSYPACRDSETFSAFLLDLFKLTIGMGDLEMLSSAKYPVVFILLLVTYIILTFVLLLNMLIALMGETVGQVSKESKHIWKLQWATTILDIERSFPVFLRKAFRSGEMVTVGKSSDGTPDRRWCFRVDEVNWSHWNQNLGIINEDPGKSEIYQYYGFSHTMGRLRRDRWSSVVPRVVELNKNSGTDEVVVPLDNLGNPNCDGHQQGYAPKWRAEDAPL
# Procedure: Figure 3 TRPV4 channel inhibition by compounds 16-8 and 16-19 – patch-clamp e-phys. (A) Current-voltage relationship of TRPV4-mediated currents after activation with 5 nM GSK101. Recordings were performed in TRPV4-GFP+ N2a cells. The representative traces represent an average of ≈12 sweeps. In all experiments, cells were pre-incubated with the respective compound (5 μM) for 5 minutes.
# Heterologously transfected N2a cells were subjected to patch clamp electrophysiological recordings. Briefly, 24 h after transfection cells were prewashed with extracellular fluid (ECF) which contained (in mM) 1 MgCl2, 10 Glucose, 10 HEPES, 145 NaCl and 2 CaCl2 (pH 7.4, 310mOsM). Cells were then incubated with or without TRPV4 inhibitors in ECF for 5 min before whole cell recording. Cover slips were transferred to a recording chamber mounted on the stage of a Leica inverted microscope that was equipped with fluorescent filters. Transfected cells were identified before patching by their green florescent color. Cells were patched with a 2.5–3.0 MΩ glass electrode pulled from borosilicate glass capillaries using pipette puller (Sutter instruments). […] Whole cell currents were recorded using pclamp 9.2 software and Axopatch 200B amplifier (Molecular Devices). […] Capacitance was monitored throughout the experimental recordings. […]
# [3] = target: TRPV1 (Mus musculus, UniProt Q704Y3); assay: Ca++ imaging in N2a cells over-expressing TRPV1 (capsaicin); settings: 5 μM
# Sequence of TRPV1 (Q704Y3 whole entry): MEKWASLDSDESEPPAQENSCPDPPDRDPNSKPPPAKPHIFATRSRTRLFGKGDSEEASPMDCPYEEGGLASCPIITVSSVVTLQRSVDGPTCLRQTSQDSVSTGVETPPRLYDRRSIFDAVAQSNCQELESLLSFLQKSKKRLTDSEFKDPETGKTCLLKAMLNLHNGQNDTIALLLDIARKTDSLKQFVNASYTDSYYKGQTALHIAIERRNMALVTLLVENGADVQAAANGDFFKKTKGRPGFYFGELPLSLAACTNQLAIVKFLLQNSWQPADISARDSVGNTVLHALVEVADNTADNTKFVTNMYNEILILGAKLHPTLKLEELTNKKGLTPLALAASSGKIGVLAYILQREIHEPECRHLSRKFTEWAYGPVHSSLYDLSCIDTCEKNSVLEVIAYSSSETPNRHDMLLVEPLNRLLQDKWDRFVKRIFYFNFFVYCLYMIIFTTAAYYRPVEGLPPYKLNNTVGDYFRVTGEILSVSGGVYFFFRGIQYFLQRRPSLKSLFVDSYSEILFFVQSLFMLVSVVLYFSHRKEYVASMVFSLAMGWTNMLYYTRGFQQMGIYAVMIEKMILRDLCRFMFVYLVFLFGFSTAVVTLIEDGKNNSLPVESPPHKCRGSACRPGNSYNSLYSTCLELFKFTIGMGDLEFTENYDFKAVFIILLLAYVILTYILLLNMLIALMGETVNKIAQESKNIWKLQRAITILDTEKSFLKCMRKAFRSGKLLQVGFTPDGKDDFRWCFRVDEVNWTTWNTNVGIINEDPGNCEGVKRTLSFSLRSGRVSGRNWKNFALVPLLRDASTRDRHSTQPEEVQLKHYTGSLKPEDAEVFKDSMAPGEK
Compound,concentration in fat and pancreas ([1]; after one hour),attenuation of TRPV4-mediated currents [2],inhibition of TRPV1 [3],"concentration in non-nervous tissue, especially liver and kidney, comparison of compounds ([1]; 1 h)",concentration at 6 h time-point compared to 1 h time-point ([1]; several organs),concentration at 24 h time-point ([1]; several organs)
CN(CCc1ccc(Nc2nc(-c3ccccc3)cs2)cc1)Cc1ccccc1 [16-8],above its IC50,significantly increased potency,did not inhibit,–,–,–
CCN(CCc1ccc(Nc2nc(-c3ccccc3)cs2)cc1)Cc1ccccc1 [16-19],–,significantly increased potency,did not inhibit,higher concentrations,10-20 fold,lower than at the 6 h but higher than at the 1 h time-point
